US20090048190A1, “Antiviral activity and resolution of 2-hydroxymethyl-5(5-fluorocytosin-1-yl)-1,3-oxathiolane” (priority 1990, published 2009)
Where two headings read alike, the source gives them in different places.

What was measured:
[1] = Pharmacokinetics after intravenous administration to rats
HIV-2 = assay: Antiretroviral activity in different cell systems, HIV-2; format: cell-based; conditions: PBMC (ROD2)
Experimental: Cell lines were obtained from either human donors, AIDS Research and Reference Reagent Program, NIH, Rockville, Md., ATCC, or the Red Cross. The CEM thymidine kinase deficient cells were prepared by sequential passage of CEM cells in the presence of 5-bromo-2′-deoxyuridine.

human PBM cells = conditions: 10 μM radiolabeled FTC
Experimental: All studies were conducted in duplicate. […] Cells were exposed to the drug for 2, 6, 12, and 24 hours. At these timepoints, the medium was removed and the cells were washed two times with cold Hank's balanced salt solution. Extraction was performed with addition of 0.2 ml of 60% cold methanol/water and stored overnight at −70° C. The following morning, the suspensions were centrifuged and extractions were repeated two times for 0.5 hours at −70° C. The total supernatants (0.6 ml) were lyophilized to dryness. The residues were resuspended in 250 μl of water and aliquots of between 50 and 100 μl were analyzed by HPLC. Quantitation of intracellular parent drug and metabolic derivatives were conducted by HPLC.

HIV = assay: microbe, parasite or virus in culture; format: cell-based; conditions: MT4 system
HepG2 cells = conditions: 10 μM [3H]-(±)-FTC
FIV = assay: Antiretroviral activity in different cell systems, FIV; format: cell-based; conditions: CrFK (61E)
HIV-1 (strain LAV) = format: cell-based
Text: It is often desirable to screen a number of racemic mixtures of nucleosides as a preliminary step to determine which warrant further resolution into enantiomerically enriched components and further evaluation of antiviral activity. The ability of nucleosides to inhibit HIV can be measured by various experimental techniques. The technique used herein, and described in detail below, measures the inhibition of viral replication in phytohemagglutinin (PHA) stimulated human peripheral blood mononuclear (PBM) cells infected with HIV-1 (strain LAV). The amount of virus produced is determined by measuring the virus-coded reverse transcriptase enzyme. The amount of enzyme produced is proportional to the amount of virus produced.
A. Three-day-old phytohemagglutinin-stimulated PBM cells (10^6 cells/ml) from hepatitis B and HIV-1 seronegative healthy donors were infected with HIV-1 (strain LAV) at a concentration of about 100 times the 50% tissue culture infectious dose (TICD 50) per ml and cultured in the presence and absence of various concentrations of antiviral compounds.
B. Approximately one hour after infection, the medium, with the compound to be tested (2 times the final concentration in medium) or without compound, was added to the flasks (5 ml; final volume 10 ml). AZT was used as a positive control.
C. The cells were exposed to the virus (about 2×10^5 dpm/ml, as determined by reverse transcriptase assay) and then placed in a CO2 incubator. HIV-1 (strain LAV) was obtained from the Center for Disease Control, Atlanta, Ga. The methods used for culturing the PBM cells, harvesting the virus and determining the reverse transcriptase activity were those described by McDougal et al. (J. Immun. Meth. 76, 171-183, 1985) and Spira et al. (J. Clin. Meth. 25, 97-99, 1987), except that fungizone was not included in the medium (see Schinazi, et al., Antimicrob. Agents Chemother. 32, 1784-1787 (1988); Id., 34:1061-1067 (1990)).
D. On day 6, the cells and supernatant were transferred to a 15 ml tube and centrifuged at about 900 g for 10 minutes. Five ml of supernatant were removed and the virus was concentrated by centrifugation at 40,000 rpm for 30 minutes (Beckman 70.1 Ti rotor). The solubilized virus pellet was processed for determination of the levels of reverse transcriptase. Results are expressed in dpm/ml of sampled supernatant. Virus from smaller volumes of supernatant (1 ml) can also be concentrated by centrifugation prior to solubilization and determination of reverse transcriptase levels.

[2] = tested on: uninfected human PBM cells
Text: The cells were counted after 6 days using a hemacytometer and the trypan blue exclusion method, as described by Schinazi et al., Antimicrobial Agents and Chemotherapy, 22(3), 499 (1982).

[3] = CSF/serum ratio in rhesus monkeys; format: in vivo; conditions: 33.3 mg/kg, one hour after administration

For Nc1nc(=O)n([C@@H]2CS[C@H](CO)O2)cc1F (racemic) [(±)-FTC, (±)-β-D,L-2-hydroxymethyl-5-(5-fluorocytosin-1-yl)-1,3-oxathiolane], the VSS (I.V., 33.3 mg/kg, individual monkeys (RUh, RMi, RJd)) was 2.00 L/kg, the “F (bioavailability)” value (P.O., 33.3 mg/kg, individual monkeys (RUh, RMi, RJd)) was 80% and the “plasma terminal half life” value (rhesus monkeys, mean of oral and I.V. administration) was “approximately 1.34±0.18”. The CLT ([1]; 10 mg/kg) was 16.5 mL/min/kg, the CLT ([1]; 50 mg/kg) was 14.6 mL/min/kg and the MRT ([1]; 50 mg/kg) was 48 min. The CLT ([1]; 100 mg/kg) was 13.8 mL/min/kg, the toxicity (CEM cells) was greater than 100 µM and the EC50 (HIV-2) was 3.8 nM. For the same molecule, the “uptake in human lymphocytes” value (human PBM cells) was “readily taken up”, the IC50 (HIV) was 520 nM and the “uptake by HepG2 cells” value (HepG2 cells) was “taken up by HepG2 cells in large amounts”. The EC50 (FIV) was no more than 1000 nM, the “% Inhibition (Corrected)” value (HIV-1 (strain LAV); 0.0001 μM) was 26.6% and the DPM/ml (HIV-1 (strain LAV); 0.0001 μM) was 73,755 DPM/ml. For the same molecule, the “% Inhibition (Corrected)” value (HIV-1 (strain LAV); 0.005 μM) was 16.3%, the DPM/ml (HIV-1 (strain LAV); 0.005 μM) was 83,005 DPM/ml and the “% Inhibition (Corrected)” value (HIV-1 (strain LAV); 0.01 μM) was 41.3%. For the same molecule, the DPM/ml (HIV-1 (strain LAV); 0.01 μM) was 60,465 DPM/ml, the “% Inhibition (Corrected)” value (HIV-1 (strain LAV); 0.05 μM) was 70.4% and the DPM/ml (HIV-1 (strain LAV); 0.05 μM) was 34,120 DPM/ml. The “% Inhibition (Corrected)” value (HIV-1 (strain LAV); 0.1 μM) was 92.4%, the DPM/ml (HIV-1 (strain LAV); 0.1 μM) was 14,160 DPM/ml and the “% Inhibition (Corrected)” value (HIV-1 (strain LAV); 0.5 μM) was 88.1%. For the same molecule, the DPM/ml (HIV-1 (strain LAV); 0.5 μM) was 18,095 DPM/ml, the “% Inhibition (Corrected)” value (HIV-1 (strain LAV); 1 μM) was 99.7% and the DPM/ml (HIV-1 (strain LAV); 1 μM) was 7,555 DPM/ml. The “% Inhibition (Corrected)” value (HIV-1 (strain LAV); 5 μM) was 99.3%, the DPM/ml (HIV-1 (strain LAV); 5 μM) was 7,940 DPM/ml and the “% Inhibition (Corrected)” value (HIV-1 (strain LAV); 10 μM) was 101.7%. For the same molecule, the DPM/ml (HIV-1 (strain LAV); 10 μM) was 5,810 DPM/ml, the EC50 (HIV-1 (strain LAV); PBM cells, read-out: activity in PBM cells) was roughly 10 nM and the EC50 (HIV-1 (strain LAV); enantiomers resolved by HPLC (Example 4), Table 4, read-out: EC50) was 18 nM. The EC50 (HIV-1 (strain LAV); enantiomers resolved by method of Example 3, FIG. 6, read-out: EC50) was 17 nM, the EC50 (HIV-1 (strain LAV); human PBM cells, HIV-1 strain LAV, Table 3, read-out: Antiviral EC50) was 10 nM and the “nontoxic at concentrations up to” value (other cell lines) was “up to 200 μM”. The toxicity (Vero cells) was greater than 100 µM, the IC50 [2] was greater than 100000 nM and the “ability to cross the blood-brain barrier” value [3] was “significant amount of active compound passes through the blood-brain barrier”.
